In US20230338454A1, “FORSYTHIA SUSPENSA COMPONENT AND OPTIONAL PANAX GINSENG COMPONENT AND THE APPLICATION” (priority 2020, published 2023):

Legend:
enterovirus 71 (EV71) = assay: Effect of drugs on viral cytopathic effect, effective antiviral rate (ER%); format: cell-based; settings: Vero cells, 100TCID50, drug at maximum non-toxic concentration, 72 h, MTT
[1] = system: carrageenan-induced paw swelling; assay: Carrageenan-induced paw swelling in rats; format: in vivo, Wistar rats; settings: sublingual intravenous injection; for Swelling rate (%) 15 min: 15 min after inflammation induction; for Swelling rate (%) 30 min: 30 min after inflammation induction; for Swelling rate (%) 60 min: 60 min after inflammation induction; for Swelling rate (%) 120 min: 120 min after inflammation induction; for Swelling rate (%) 180 min: 180 min after inflammation induction; for Swelling rate (%) 240 min: 240 min after inflammation induction; for Swelling rate (%) 300 min: 300 min after inflammation induction; for Swelling rate (%) 360 min: 360 min after inflammation induction
Description: Each group was administered by sublingual intravenous injection. Before the study, the normal volume of the right hind limb was measured by the capillary magnification method. To avoid errors, the measurement position should be fixed and performed by one person before and after administration. The average of the two measurements was taken as the normal volume of the right hind limb of the rats prior to administration. […] The inter-group t-test was performed by the difference percentage (swelling rate) of the plantar volume before and after the inflammation induction, and the differences among the groups were compared.

[2] = system: NK cells (YAC-1 target cells); assay: Determination of NK cell viability; format: in vivo, Kunming mice; settings: 144 mg/kg; gavage once daily for 30 days; mice
Description: One hundred and fifty-two healthy male mice were subjected to acclimation for 4 days before they were randomly divided into 19 groups: the negative control group, positive control group, forsythin group, 20(R)-ginsenoside Rg3 group, high, middle and low dose groups of panax ginseng-forsythia suspensa composition. […] The drugs were given by gavage, once daily for 30 days, and the negative control group was given the same volume of water. One hour after the last dose, the spleens of animals of each group were aseptically excised to prepare splenocyte suspension. […] Then, the concentration of splenocyte suspension was adjusted to 2×10^7 cells/mL. and the splenocyte suspension was added into a 96-well plate for culturing. […] A triplicate set of tubes was prepared for each of the above items. The 96-well plate was incubated at 37° C. in a 5% CO2 incubator for 4 h. After adding LDH matrix solution and 1 moL/L HCl, the solutions in each parallel well were combined, and the absorbance (ABS) was measured at 490 nm. The NK cell viability was calculated: NK cell viability (%) = (ABS reaction well -ABS natural release well)/(ABS maximum release well -ABS natural release well).

[3] = system: Human embryonic lung fibroblast cell strain; assay: Drug toxicity testing (MTT and cytopathic effect methods), maximum non-toxic concentration TD0; settings: human embryonic lung fibroblasts
HCMV AD169 strain = assay: Inhibitory effect on HCMV in vitro (MEC, therapeutic index); format: cell-based, human cytomegalovirus; settings: HCMV AD169, 100 times TCD50, 10 days of culture
Description: Human embryonic lung fibroblast cell strain (purchased from Sino Best Biological Technology Co., Ltd.). The cells were cultured and subcultured according to the conventional method.
HCMV AD169 strain was purchased from American Type Culture Collection (ATCC).
Cells were inoculated in a 96-well plate, allowed to grow into monolayers, and inoculated with a virus challenge of 100 times TCD50. Starting from TD0, each drug was diluted stepwise according to 10-fold gradient to prepare 5 concentrations, with 4 wells set for each concentration. In addition, 4 wells of normal cell control and 4 wells of virus control were set.

Row | SMILES | Effective Antiviral Rates (ER%) EV71 (enterovirus 71 (EV71)) | Swelling rate (%) 15 min ([1]; 2.5 mg/kg) | Swelling rate (%) 30 min ([1]; 2.5 mg/kg) | Swelling rate (%) 60 min ([1]; 2.5 mg/kg) | Swelling rate (%) 120 min ([1]; 2.5 mg/kg) | Swelling rate (%) 180 min ([1]; 2.5 mg/kg) | Swelling rate (%) 240 min ([1]; 2.5 mg/kg) | Swelling rate (%) 300 min ([1]; 2.5 mg/kg) | Swelling rate (%) 360 min ([1]; 2.5 mg/kg) | Swelling rate (%) 15 min ([1]; 10.0 mg/kg) | Swelling rate (%) 30 min ([1]; 10.0 mg/kg) | Swelling rate (%) 60 min ([1]; 10.0 mg/kg) | Swelling rate (%) 120 min ([1]; 10.0 mg/kg) | Swelling rate (%) 180 min ([1]; 10.0 mg/kg) | Swelling rate (%) 240 min ([1]; 10.0 mg/kg) | Swelling rate (%) 300 min ([1]; 10.0 mg/kg) | Swelling rate (%) 360 min ([1]; 10.0 mg/kg) | NK cell viability (%) [2] | Maximum non-toxic concentration TD0 [3] | Minimum effective concentration MEC (HCMV AD169 strain)
1 | CC(C)=CCC[C@](C)(O)[C@H]1CC[C@]2(C)[C@@H]1[C@H](O)C[C@@H]1[C@@]3(C)CC[C@H](O[C@@H]4O[C@H](CO)[C@@H](O)[C@H](O)[C@H]4O[C@@H]4O[C@H](CO)[C@@H](O)[C@H](O)[C@H]4O)C(C)(C)[C@@H]3CC[C@]12C [20(R)-Ginsenoside Rg3, 20(R)-ginsenoside Rg3] | 74.66^∗∗ % | 14.8±8.74% | 18.9±12.1% | 23.5±13.3^∗▲▲ % | 28.9±14.2^∗∗Δ▲ % | 31.8±14.8^∗∗Δ▲ % | 33.1±18.3^∗∗Δ▲ % | 34.9±19.6^∗∗Δ▲ % | 37.8±18.3^∗▲▲ % | 14.9±6.13% | 21.9±9.72% | 27.1±13.5% | 30.7±10.2^∗ % | 33.8±12.1^∗ % | 31.0±11.3^∗ % | 35.8±13.5^∗ % | 36.4±10.2% | 37.34±7.21% | – | –
2 | COc1ccc([C@H]2OCC3C2CO[C@H]3c2ccc(O[C@@H]3OC(CO)[C@@H](O)[C@H](O)C3O)c(OC)c2)cc1OC (stereo partly drawn) [Forsythin] | 84.85^∗∗ % | – | – | – | – | – | – | – | – | 12.9±8.41% | 19.9±9.55% | 21.8±11.8 % | 28.9±14.0^∗ % | 30.8±15.4^∗ % | 29.9±11.1^∗ % | 33.5±10.0^∗ % | 32.2±11.9^∗ % | 41.86±7.24% | 40 mg/L | 4 mg/L
